Data taken from ChEMBL document CHEMBL4020766, “Design and synthesis of potent inhibitors of the mono(ADP-ribosyl)transferase, PARP14” (Bioorg Med Chem Lett, 2017).
Blank lines part the entries; values can stand above or below the molecule they belong to.

Assays:
[1] = biological target: T1, Protein mono-ADP-ribosyltransferase PARP14 (Homo sapiens, UniProt Q460N5); assay: Inhibition of recombinant human His6-tagged PARP14 catalytic/WWE domain (1459 to 1801 residues) expressed in Escherichia coli BL21(DE3) preincubated for 15 mins followed by biotinylated NAD+ addition by chemiluminescence assay
T1 sequence (Q460N5 whole entry, the tested form may be a part): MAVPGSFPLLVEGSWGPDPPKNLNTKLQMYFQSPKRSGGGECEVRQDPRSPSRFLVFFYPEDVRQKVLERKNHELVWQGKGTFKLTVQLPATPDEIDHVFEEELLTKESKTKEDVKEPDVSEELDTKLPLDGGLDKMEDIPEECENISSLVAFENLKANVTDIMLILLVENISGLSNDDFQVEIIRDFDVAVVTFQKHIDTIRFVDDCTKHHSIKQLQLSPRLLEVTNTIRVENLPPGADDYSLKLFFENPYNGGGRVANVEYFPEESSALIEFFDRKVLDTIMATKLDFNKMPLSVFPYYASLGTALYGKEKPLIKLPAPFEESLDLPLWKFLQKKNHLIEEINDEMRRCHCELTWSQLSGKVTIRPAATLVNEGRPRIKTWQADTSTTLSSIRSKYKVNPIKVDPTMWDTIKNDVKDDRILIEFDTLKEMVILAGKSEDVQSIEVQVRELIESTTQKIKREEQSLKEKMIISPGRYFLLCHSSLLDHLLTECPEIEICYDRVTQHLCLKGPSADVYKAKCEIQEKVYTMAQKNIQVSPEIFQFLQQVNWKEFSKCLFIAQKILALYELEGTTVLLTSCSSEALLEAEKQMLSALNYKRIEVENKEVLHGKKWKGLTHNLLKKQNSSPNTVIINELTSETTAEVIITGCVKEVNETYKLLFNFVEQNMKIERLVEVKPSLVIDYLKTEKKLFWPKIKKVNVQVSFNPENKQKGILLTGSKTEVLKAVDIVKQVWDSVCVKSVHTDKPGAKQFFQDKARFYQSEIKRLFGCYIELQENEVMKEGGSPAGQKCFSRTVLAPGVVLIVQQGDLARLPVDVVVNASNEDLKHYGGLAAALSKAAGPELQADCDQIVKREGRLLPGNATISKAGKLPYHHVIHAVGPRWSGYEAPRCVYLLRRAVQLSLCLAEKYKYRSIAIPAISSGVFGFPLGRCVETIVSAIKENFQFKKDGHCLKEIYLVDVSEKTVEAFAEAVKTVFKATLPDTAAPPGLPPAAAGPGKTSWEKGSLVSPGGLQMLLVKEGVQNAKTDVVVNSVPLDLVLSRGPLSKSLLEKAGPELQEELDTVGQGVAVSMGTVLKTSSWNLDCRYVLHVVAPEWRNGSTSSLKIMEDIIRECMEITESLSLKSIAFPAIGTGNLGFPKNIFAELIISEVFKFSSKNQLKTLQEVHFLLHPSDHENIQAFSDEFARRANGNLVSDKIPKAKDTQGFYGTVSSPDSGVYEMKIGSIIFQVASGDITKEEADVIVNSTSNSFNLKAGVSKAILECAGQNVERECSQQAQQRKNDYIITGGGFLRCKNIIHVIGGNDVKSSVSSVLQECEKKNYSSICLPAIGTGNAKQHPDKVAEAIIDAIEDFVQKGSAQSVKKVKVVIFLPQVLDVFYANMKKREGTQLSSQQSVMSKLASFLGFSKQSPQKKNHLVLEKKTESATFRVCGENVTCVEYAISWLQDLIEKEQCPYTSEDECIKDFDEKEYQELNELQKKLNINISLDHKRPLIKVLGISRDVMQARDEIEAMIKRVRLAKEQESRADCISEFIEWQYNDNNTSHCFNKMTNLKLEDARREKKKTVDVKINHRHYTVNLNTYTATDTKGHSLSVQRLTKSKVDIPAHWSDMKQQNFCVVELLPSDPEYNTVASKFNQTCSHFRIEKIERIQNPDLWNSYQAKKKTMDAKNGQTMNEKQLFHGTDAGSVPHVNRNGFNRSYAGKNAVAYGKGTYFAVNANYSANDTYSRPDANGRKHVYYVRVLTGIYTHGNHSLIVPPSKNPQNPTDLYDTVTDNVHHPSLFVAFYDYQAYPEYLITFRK

[2] = biological target: T2, Poly [ADP-ribose] polymerase 1 (Homo sapiens, UniProt P09874); assay: Inhibition of recombinant human full length His6-tagged PARP1 expressed in Escherichia coli BL21(DE3) at 5 uM preincubated for 15 mins followed by biotinylated NAD+ addition by chemiluminescence assay relative to control
T2 sequence (P09874 whole entry): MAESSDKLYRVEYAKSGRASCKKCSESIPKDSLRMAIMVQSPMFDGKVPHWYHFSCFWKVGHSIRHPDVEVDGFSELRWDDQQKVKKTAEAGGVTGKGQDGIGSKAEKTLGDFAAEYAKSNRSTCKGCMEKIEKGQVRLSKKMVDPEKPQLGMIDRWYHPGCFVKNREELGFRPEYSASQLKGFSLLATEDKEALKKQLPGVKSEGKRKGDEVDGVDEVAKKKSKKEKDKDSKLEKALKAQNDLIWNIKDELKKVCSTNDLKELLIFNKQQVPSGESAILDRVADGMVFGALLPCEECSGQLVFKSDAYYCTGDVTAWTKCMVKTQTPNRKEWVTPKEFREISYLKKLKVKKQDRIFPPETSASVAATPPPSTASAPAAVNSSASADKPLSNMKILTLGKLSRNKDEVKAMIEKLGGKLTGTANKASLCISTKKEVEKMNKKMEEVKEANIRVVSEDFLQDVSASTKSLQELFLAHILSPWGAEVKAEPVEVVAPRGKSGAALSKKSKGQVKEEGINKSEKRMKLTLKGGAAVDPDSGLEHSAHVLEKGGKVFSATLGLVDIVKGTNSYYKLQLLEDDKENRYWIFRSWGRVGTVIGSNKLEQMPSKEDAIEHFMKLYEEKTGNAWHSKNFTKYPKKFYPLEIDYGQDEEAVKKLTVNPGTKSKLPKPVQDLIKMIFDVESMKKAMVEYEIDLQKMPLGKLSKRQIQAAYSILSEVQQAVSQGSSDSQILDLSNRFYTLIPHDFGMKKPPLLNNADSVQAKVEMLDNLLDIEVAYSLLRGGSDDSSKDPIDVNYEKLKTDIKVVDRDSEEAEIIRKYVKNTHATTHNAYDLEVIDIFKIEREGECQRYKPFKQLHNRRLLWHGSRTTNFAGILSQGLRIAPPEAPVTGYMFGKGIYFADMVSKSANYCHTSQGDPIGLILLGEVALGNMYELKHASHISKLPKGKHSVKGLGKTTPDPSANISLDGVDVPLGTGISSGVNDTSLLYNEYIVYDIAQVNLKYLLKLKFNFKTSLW

[3] = biological target: T2, Poly [ADP-ribose] polymerase 1; assay: Inhibition of recombinant human full length His6-tagged PARP1 expressed in Escherichia coli BL21(DE3) preincubated for 15 mins followed by biotinylated NAD+ addition by chemiluminescence assay
[4] = biological target: T3, Poly [ADP-ribose] polymerase tankyrase-1 (Homo sapiens, UniProt O95271); assay: Inhibition of recombinant human His6-tagged PARP5a catalytic domain (1091 to 1325 residues) expressed in Escherichia coli BL21(DE3) preincubated for 15 mins followed by biotinylated NAD+ addition by chemiluminescence assay
T3 sequence (O95271 whole entry): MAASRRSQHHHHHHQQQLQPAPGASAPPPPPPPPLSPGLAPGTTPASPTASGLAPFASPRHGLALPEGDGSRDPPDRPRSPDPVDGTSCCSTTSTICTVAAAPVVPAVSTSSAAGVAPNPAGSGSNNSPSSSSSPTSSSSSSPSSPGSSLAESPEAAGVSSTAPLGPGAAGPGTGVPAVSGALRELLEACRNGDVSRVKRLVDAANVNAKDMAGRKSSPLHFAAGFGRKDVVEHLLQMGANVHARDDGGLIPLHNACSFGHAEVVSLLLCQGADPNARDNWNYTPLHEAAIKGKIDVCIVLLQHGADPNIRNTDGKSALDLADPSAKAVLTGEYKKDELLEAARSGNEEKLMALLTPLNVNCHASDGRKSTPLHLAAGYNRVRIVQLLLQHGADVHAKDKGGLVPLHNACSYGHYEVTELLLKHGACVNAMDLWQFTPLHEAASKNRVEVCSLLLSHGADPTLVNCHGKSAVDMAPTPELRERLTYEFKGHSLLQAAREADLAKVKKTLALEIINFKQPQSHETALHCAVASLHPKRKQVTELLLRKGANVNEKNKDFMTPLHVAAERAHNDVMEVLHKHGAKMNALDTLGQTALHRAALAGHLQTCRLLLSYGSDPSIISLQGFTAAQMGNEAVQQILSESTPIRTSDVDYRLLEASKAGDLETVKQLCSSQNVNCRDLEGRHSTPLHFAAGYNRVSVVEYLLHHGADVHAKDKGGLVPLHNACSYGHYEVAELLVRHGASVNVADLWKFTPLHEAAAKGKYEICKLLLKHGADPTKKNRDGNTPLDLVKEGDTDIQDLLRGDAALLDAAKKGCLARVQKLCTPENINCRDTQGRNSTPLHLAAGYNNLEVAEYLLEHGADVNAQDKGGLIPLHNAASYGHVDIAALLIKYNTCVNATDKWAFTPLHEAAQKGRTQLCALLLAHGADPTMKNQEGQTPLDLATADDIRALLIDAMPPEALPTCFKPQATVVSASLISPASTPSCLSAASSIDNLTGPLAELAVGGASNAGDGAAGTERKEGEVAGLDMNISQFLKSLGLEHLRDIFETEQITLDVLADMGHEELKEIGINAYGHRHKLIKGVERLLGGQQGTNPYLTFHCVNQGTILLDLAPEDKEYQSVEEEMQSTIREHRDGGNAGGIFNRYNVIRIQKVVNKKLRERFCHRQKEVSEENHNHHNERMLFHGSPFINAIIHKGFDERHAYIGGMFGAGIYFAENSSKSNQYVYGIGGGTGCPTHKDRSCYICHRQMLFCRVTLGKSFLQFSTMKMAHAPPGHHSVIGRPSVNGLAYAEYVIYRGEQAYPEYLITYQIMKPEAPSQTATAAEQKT

[5] = organism: Homo sapiens; assay: Selectivity ratio of IC50 for recombinant human His6-tagged PARP5a catalytic domain (1091 to 1325 residues) to IC50 for recombinant human His6-tagged PARP14 catalytic/WWE domain (1459 to 1801 residues)
[6] = biological target: T1, Protein mono-ADP-ribosyltransferase PARP14; assay: Inhibition of recombinant human His6-tagged PARP14 catalytic/WWE domain (1459 to 1801 residues) expressed in Escherichia coli BL21(DE3) at 5 uM preincubated for 15 mins followed by biotinylated NAD+ addition by chemiluminescence assay relative to control
[7] = biological target: T4, Protein mono-ADP-ribosyltransferase PARP12 (Homo sapiens, UniProt Q9H0J9); assay: Inhibition of His6-tagged PARP12 (unknown origin) preincubated for 15 mins followed by biotinylated NAD+ addition by chemiluminescence assay
T4 sequence (Q9H0J9 whole entry): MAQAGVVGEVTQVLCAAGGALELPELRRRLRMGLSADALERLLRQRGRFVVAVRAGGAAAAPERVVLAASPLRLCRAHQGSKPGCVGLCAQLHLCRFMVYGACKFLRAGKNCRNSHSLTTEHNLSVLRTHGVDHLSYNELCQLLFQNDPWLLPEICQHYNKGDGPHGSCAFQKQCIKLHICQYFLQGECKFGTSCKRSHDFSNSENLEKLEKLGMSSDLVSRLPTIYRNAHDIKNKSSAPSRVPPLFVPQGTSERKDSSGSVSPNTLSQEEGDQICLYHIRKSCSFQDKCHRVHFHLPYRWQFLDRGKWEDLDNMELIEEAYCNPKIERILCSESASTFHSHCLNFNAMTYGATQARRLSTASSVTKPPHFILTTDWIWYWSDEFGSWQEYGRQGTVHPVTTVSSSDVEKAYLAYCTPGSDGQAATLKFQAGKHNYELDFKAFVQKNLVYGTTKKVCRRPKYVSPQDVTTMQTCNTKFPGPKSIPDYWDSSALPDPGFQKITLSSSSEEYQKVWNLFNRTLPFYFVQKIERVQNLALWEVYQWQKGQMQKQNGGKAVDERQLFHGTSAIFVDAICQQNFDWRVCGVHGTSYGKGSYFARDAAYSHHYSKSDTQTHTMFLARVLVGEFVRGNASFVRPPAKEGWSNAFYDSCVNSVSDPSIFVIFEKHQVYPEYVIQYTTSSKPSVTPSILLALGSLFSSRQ

[8] = biological target: T5, Protein mono-ADP-ribosyltransferase PARP15 (Homo sapiens, UniProt Q460N3); assay: Inhibition of His6-tagged PARP15 (unknown origin) preincubated for 15 mins followed by biotinylated NAD+ addition by chemiluminescence assay
T5 sequence (Q460N3 whole entry): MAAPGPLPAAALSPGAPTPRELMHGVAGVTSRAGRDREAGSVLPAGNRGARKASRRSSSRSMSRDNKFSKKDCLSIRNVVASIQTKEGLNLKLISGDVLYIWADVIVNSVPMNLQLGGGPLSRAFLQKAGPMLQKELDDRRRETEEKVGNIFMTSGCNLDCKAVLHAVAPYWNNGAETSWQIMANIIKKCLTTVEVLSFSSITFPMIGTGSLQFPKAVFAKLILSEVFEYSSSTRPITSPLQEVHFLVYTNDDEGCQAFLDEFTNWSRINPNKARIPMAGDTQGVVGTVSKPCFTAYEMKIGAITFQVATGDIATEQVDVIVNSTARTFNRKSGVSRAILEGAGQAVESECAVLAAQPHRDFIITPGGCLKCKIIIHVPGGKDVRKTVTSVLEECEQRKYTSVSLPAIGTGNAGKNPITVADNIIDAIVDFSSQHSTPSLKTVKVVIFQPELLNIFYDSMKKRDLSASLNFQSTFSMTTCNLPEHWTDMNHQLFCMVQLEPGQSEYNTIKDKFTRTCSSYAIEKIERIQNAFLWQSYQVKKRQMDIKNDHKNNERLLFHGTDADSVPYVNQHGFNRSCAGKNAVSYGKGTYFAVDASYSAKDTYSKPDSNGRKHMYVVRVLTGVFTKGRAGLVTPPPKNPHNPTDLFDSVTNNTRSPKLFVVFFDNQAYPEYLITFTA

[9] = biological target: T6, Protein mono-ADP-ribosyltransferase PARP16 (Homo sapiens, UniProt Q8N5Y8); assay: Inhibition of His6-tagged PARP16 (unknown origin) preincubated for 15 mins followed by biotinylated NAD+ addition by chemiluminescence assay
T6 sequence (Q8N5Y8 whole entry): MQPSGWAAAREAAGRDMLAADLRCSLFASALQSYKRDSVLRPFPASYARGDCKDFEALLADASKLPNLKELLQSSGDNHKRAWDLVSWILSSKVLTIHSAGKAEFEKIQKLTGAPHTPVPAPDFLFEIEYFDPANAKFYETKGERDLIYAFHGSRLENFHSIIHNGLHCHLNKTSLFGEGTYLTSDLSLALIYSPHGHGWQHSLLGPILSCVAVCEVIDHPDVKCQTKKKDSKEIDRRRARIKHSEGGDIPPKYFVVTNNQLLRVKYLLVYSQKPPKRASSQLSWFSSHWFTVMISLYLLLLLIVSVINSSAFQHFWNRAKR

SMILES: NC(=O)c1cccc(NC(=O)/C=C\C(=O)N2CCCC(Oc3ccccc3)C2)c1 (stereo unspecified)
IC50 ([1]; read-out: IC50): 1400 nM
inhibition [2]: 90%

SMILES: NC(=O)c1cccc(NC(=O)/C=C\C(=O)N2CCN(c3ccccc3F)CC2)c1
IC50 ([1]; read-out: IC50): 410 nM
IC50 [3]: 510 nM
IC50 ([4]; read-out: IC50): 9400 nM
Ratio IC50 [5]: 23

SMILES: NC(=O)c1cccc(NC(=O)/C=C\C(=O)N2CCCCC2Cc2ccccc2)c1 (stereo unspecified)
IC50 ([1]; read-out: IC50): 3500 nM

SMILES: CCOC(=O)CC1CCN(C(=O)/C=C\C(=O)Nc2cccc(C(N)=O)c2)CC1
IC50 ([1]; read-out: IC50): 2400 nM
IC50 ([1]; read-out: pIC50 (converted)): 407 nM

SMILES: NC(=O)c1cccc(NC(=O)/C=C\C(=O)N2CCC(c3ccccc3)CC2)c1
IC50 ([1]; read-out: IC50): 2200 nM

SMILES: NC(=O)c1cccc(NC(=O)/C=C\C(=O)N2CCN(c3ncccn3)CC2)c1
IC50 ([1]; read-out: IC50): 2800 nM

SMILES: CCOC(=O)C1CCN(C(=O)/C=C\C(=O)Nc2cccc(C(N)=O)c2)CC1
inhibition [6]: 28%

SMILES: NC(=O)c1cccc(N2C(=O)CC(N3CCN(c4ccccc4F)CC3)C2=O)c1 (stereo unspecified)
IC50 ([1]; read-out: IC50): > 20000 nM

SMILES: COc1ccc(N2CCN(C(=O)/C=C\C(=O)Nc3cccc(C(N)=O)c3)CC2)cc1
IC50 ([1]; read-out: IC50): 3400 nM

Next, values leading:

IC50 ([1]; read-out: IC50): 270 nM
IC50 [3]: 270 nM
IC50 ([4]; read-out: IC50): 8000 nM
Ratio IC50 [5]: 30
SMILES: NC(=O)c1cccc(NC(=O)/C=C\C(=O)N2CCC(c3ccc(F)cc3)CC2)c1

IC50 ([1]; read-out: IC50): 650 nM
IC50 ([1]; read-out: pIC50 (converted)): 676 nM
SMILES: NC(=O)c1cccc(NC(=O)/C=C\C(=O)N2CCC(CCc3ccccc3)CC2)c1

IC50 ([1]; read-out: IC50): 450 nM
IC50 [3]: 230 nM
IC50 ([4]; read-out: IC50): 4800 nM
Ratio IC50 [5]: 11
SMILES: NC(=O)c1cccc(NC(=O)/C=C\C(=O)N2CCC(Cc3ccccc3)CC2)c1

IC50 ([1]; read-out: IC50): 900 nM
IC50 [3]: 370 nM
IC50 ([4]; read-out: IC50): 6000 nM
Ratio IC50 [5]: 6.7
SMILES: NC(=O)c1cccc(NC(=O)/C=C\C(=O)N2CCN(c3ccccc3)CC2)c1

IC50 ([1]; read-out: IC50): 690 nM
IC50 [3]: 1600 nM
IC50 ([4]; read-out: IC50): 2700 nM
IC50 ([4]; read-out: pIC50 (converted)): 575 nM
SMILES: NC(=O)c1cccc(NC(=O)/C=C\C(=O)N2CCCC(c3ccccc3)C2)c1 (stereo unspecified)

IC50 ([1]; read-out: IC50): 370 nM
SMILES: CC(C)(C)OC(=O)N1CCN(C(=O)/C=C\C(=O)Nc2cccc(C(N)=O)c2)CC1

IC50 ([1]; read-out: IC50): 4200 nM
IC50 [3]: 800 nM
IC50 ([4]; read-out: IC50): 9800 nM
SMILES: NC(=O)c1cccc(NC(=O)/C=C\C(=O)N2CCN(c3ccc(-c4ccccc4)cc3)CC2)c1

IC50 ([1]; read-out: IC50): 160 nM
IC50 ([1]; read-out: pIC50 (converted)): 617 nM
IC50 [3]: 220 nM
IC50 ([4]; read-out: IC50): 900 nM
IC50 ([4]; read-out: pIC50 (converted)): 977 nM
Ratio IC50 [5]: 5.6
SMILES: NC(=O)c1cccc(NC(=O)/C=C\C(=O)N2CCN(c3ccc(Cl)cc3)CC2)c1

IC50 ([1]; read-out: IC50): 1100 nM
SMILES: NC(=O)c1cccc(NC(=O)/C=C\C(=O)N2CCCCC2c2ccccc2)c1 (stereo unspecified)

IC50 ([1]; read-out: IC50): 700 nM
IC50 [3]: 560 nM
IC50 ([4]; read-out: IC50): 2700 nM
Ratio IC50 [5]: 3.9
IC50 [7]: 8200 nM
IC50 [8]: 520 nM
IC50 [9]: 560 nM
SMILES: NC(=O)c1cccc(NC(=O)/C=C\C(=O)N2CCN(c3ccc(F)cc3)CC2)c1

inhibition [6]: 21%
SMILES: CCOC(=O)C1CCCN(C(=O)/C=C\C(=O)Nc2cccc(C(N)=O)c2)C1 (stereo unspecified)
